Data as given in US20200069775A1, “BRAIN OSTEOCALCIN RECEPTOR AND COGNITIVE DISORDERS” (The Trustees of Columbia University in the City of New York, priority 2017, published 2020).
Entries after “also recorded” stand apart in the source; their conditions may differ.

Columns and labels:
WT mice = assay: Contextual Fear Conditioning after acute hippocampal injection; type: in vivo, mouse
Procedure: FIG. 11. CREB activation by osteocalcin is functionally relevant. Contextual fear conditioning in 3.5 month old mice injected acutely with 10 ng recombinant uncarboxylated osteocalcin 24 hours prior to context exposure. 3 shocks of 0.55 mA were delivered to mice 1 min apart.
To determine whether these acute injections and corresponding activation of the CREB pathway are functionally relevant, Contextual Fear Conditioning (CFC), a hippocampus dependent task that assesses long term memory, was performed. Mice were injected acutely in both hemispheres with either PBS or 10 ng recombinant uncarboxylated osteocalcin.

[1] = Blood brain barrier crossing: subcutaneous pump infusion, content in blood, bone and brain parts by ELISA; type: in vivo, mouse; settings: Osteocalcin−/− mice, subcutaneous pumps 50 ng/hour, seven days
Procedure: Osteocalcin−/−, Gprc6a−/−, Osteocalcin-mCherry, and Osteocalcin foxed mice have been previously described (Ducy et al., 1996, Nature 382:448-452; Oury et al., 2011, Cell 144:796-809). Mouse genotypes were determined by PCR. For all experiments, controls were littermate female WT, Cre-expressing, or flox/flox. All mice were maintained on a pure 129-Sv genetic background except for the inducible deletion Osteocalcin model (mix background: 25% C57/BL6 and 75% 129sv). For inducible gene deletion mice, tamoxifen was prepared in corn oil and injected intraperitoneally (IP) (1 mg/20g of body weight) over one week. For osteocalcin delivery to pregnant mice, IP injections (240 ng/day) were performed as soon as a plug was present daily until delivery (E0.5-E18.5). For osteocalcin or leptin infusion in adult Osteocalcin−/− or ob/ob mice, pumps (Alzet micro-osmotic pump, Model 1002) delivering osteocalcin (300 ng/hr), leptin (50 ng/hr), or vehicle were surgically installed subcutaneously in the backs of 3-month old mice. For the postnatal rescue of cognitive functions in Osteocalcin−/− mice, osteocalcin (10 ng/hour) or vehicle were delivered intrasubventricularly (icv) as previously described (Ducy et al., 2000, Cell 100:197-207). Leptin and osteocalcin content in sera and tissues were determined by ELISA.
To understand how this behavioral phenotype develops, whether osteocalcin crosses the blood brain barrier (BBB) was tested by installing pumps that subcutaneously delivered vehicle or uncarboxylated osteocalcin (50 ng/hour) in three-month-old Osteocalcin−/− mice. The positive control for this experiment was subcutaneous infusion of leptin (50 ng/hour) in 3 month-old ob/ob mice, since leptin is known to cross the BBB (Banks et al., 1996, Peptides 17:305-311). Seven days later, osteocalcin and leptin content were measured in blood, bone, and in various parts of the brain in Osteocalcin−/− and ob/ob mice, respectively.

Q: With “osteocalcin: Recombinant osteocalcin bacterially produced, cleaved from the GST subunit; completely undercarboxylated at all three sites; full-length mouse osteocalcin (YLGASVPSPDPLEPTREQCELNPACDELSDQYGLKTAYKRIYGITI)” as the substance, how does the “% freezing on Day 1 (CFC)” value (WT mice; 10 ng injected 24 hours prior to context exposure) read?
A: % freezing was the same for both groups

Q: What about the “freezing behavior 24 hours after the initial shocks (CFC)” value (WT mice; 10 ng injected acutely in both hemispheres, listed as recombinant uncarboxylated osteocalcin) of the same substance?
A: increased freezing behavior as compared to controls; also recorded: increased freezing along with hyperexcitability

Q: And the “osteocalcin accumulation in parts of the brain” value [1]?
A: accumulated in Osteocalcin−/− mice in the brainstem, thalamus, and hypothalamus

Q: And the “osteocalcin concentration in brainstem, thalamus, and hypothalamus relative to that observed in serum” value [1]?
A: ~50%
